Key:
Casein kinase II [1] = biological target: T1, Casein kinase II (Homo sapiens, UniProt P19784+P67870+P68400); assay: Inhibitory concentration was determined towards Casein kinase 2; assay type: protein-complex assay
Protein kinase C (PKC) = assay: Inhibition of protein kinase C; assay type: protein assay
[2] = biological target: Cyclin-dependent kinase 1 (Homo sapiens, UniProt P06493); assay: Inhibition of cyclin-dependent kinase 1 cdc2
[3] = biological target: Proto-oncogene tyrosine-protein kinase Src (Homo sapiens, UniProt P12931); assay: Inhibition of p60 c-Src tyrosine kinase (No inhibition)
Chain of Proto-oncogene tyrosine-protein kinase Src (P12931 2-536 limits assumed): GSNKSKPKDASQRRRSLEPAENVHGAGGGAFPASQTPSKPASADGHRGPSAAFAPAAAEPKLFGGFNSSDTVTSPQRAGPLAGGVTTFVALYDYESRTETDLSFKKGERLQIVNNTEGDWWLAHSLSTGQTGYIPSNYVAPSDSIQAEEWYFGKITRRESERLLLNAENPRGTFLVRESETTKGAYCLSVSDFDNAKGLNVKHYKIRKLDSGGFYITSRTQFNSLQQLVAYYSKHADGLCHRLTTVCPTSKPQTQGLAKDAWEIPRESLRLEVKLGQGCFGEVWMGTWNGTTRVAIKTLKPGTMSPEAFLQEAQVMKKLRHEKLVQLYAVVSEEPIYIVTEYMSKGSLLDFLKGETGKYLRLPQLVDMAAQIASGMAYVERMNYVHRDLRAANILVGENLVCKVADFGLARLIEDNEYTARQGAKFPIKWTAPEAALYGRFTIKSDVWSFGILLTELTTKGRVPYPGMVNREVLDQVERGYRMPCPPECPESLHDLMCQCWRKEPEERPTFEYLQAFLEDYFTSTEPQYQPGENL

Casein kinase II [4] = biological target: T1, Casein kinase II; assay: Inhibition of casein kinase II; assay type: protein-complex assay

T1 sequence (P67870 whole entry): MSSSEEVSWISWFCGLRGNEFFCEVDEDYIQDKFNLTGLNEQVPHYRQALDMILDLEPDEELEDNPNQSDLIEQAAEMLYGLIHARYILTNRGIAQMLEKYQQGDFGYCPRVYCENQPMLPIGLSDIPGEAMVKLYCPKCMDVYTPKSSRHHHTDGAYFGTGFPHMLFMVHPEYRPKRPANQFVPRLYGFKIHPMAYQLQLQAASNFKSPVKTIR
T1 sequence (P68400 whole entry): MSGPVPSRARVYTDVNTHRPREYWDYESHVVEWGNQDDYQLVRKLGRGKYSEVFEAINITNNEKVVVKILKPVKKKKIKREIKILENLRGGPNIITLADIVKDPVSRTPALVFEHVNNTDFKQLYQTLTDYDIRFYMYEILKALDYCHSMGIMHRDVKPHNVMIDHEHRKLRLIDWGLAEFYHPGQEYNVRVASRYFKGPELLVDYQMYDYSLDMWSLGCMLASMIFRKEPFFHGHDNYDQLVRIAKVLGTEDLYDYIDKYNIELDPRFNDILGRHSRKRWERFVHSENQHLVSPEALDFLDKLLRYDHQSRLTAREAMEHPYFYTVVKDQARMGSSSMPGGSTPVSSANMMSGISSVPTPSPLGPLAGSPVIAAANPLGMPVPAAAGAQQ
T1 sequence (P19784 whole entry): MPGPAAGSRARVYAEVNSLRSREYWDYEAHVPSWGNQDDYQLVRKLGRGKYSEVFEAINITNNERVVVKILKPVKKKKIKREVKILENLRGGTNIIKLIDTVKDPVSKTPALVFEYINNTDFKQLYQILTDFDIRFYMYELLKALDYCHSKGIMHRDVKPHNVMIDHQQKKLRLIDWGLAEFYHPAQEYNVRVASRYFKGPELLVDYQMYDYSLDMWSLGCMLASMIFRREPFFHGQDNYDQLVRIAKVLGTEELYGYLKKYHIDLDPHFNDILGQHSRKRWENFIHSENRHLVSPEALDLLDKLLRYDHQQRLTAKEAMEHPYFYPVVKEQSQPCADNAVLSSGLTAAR
Chain of Cyclin-dependent kinase 1 (P06493 whole entry): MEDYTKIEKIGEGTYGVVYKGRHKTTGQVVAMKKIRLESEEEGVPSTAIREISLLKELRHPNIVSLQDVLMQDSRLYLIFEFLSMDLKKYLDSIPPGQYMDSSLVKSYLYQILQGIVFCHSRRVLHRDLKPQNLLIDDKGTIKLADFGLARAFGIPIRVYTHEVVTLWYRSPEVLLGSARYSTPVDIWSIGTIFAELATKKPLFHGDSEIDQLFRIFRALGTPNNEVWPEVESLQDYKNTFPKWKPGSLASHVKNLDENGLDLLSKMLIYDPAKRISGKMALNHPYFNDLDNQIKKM

SMILES | IC50 (Casein kinase II [1]) | other results
O/C(=C/c1ccccn1)c1ccc(Cl)cc1Cl | 900 µM | 
O/C(=C/c1ccccn1)c1cccc(Cl)c1Cl | 130 µM | 
O/C(=C/c1ccccn1)c1ccccc1 | 2500 µM | 
Nc1cc2cccc[n+]2c2ccccc12 [listing 1 of 2 here] | 110 µM | 
Nc1cc2cccc[n+]2c2ccccc12 [listing 2 of 2 here] | 100 µM | 
Nc1cc2cccc[n+]2c2cc(Cl)ccc12 | 24 µM | 
Oc1cc2cccc[n+]2c2c(Cl)cccc12.[Cl-] |  | IC50 (Protein kinase C (PKC)): 38 µM; IC50 [2]: > 1000 µM; IC50 [3]: Not Active; IC50 (Casein kinase II [4]): 5 µM
O/C(=C/c1ccccn1)c1ccccc1Cl | 1200 µM | 
Nc1cc2cccc[n+]2c2cccc(Cl)c12 | 84 µM | 
O/C(=C/c1ccccn1)c1c(Cl)cccc1Cl | 580 µM | 
O/C(=C/c1ccccn1)c1ccccc1Br | 820 µM | 

Second part, led by results:

IC50 (Casein kinase II [1]) | SMILES | other results
43 µM | Oc1cc2cccc[n+]2c2ccccc12 [listing 1 of 2 here] | 
210 µM | Oc1cc2cccc[n+]2c2ccc(Cl)cc12 | 
50 µM | Nc1cc2cccc[n+]2c2c(Cl)cccc12 | 
18 µM | Oc1cc2cccc[n+]2c2cccc(Cl)c12 | 
50 µM | Oc1cc2cccc[n+]2c2ccccc12 [listing 2 of 2 here] | 
39 µM | Oc1cc2cccc[n+]2c2cc(Cl)ccc12 | 
